ChEMBL document CHEMBL4251600, “Bioactive products from singlet oxygen photooxygenation of cannabinoids” (Eur J Med Chem, 2018)
≈ marks a conversion by molar mass, not a printed value.

Columns and labels:
[1] = system: Nakaseomyces glabratus; assay: Antifungal activity against Candida glabrata by modified CLSI based method; type: functional, organism-based
[2] = system: SK-OV-3; assay: Anticancer activity against human SKOV3 cells assessed as cell growth inhibition up to 10 ug/ml incubated for 48 hrs by neutral red dye based assay; type: functional
[3] = system: SK-MEL; assay: Anticancer activity against human SK-MEL cells assessed as cell growth inhibition incubated for 48 hrs by neutral red dye based assay; type: functional
[4] = system: Cryptococcus neoformans; assay: Antifungal activity against Cryptococcus neoformans by alamar blue assay; type: functional, organism-based; conditions: Cryptococcus neoformans
[5] = system: Plasmodium falciparum; assay: Antiplasmodial activity against chloroquine-resistant Plasmodium falciparum W2 infected in red blood cells incubated for 72 hrs by parasite LDH release based colorimetric assay; type: functional, organism-based; conditions: W2, 72 h
[6] = system: KB; assay: Anticancer activity against human KB cells assessed as cell growth inhibition up to 10 ug/ml incubated for 48 hrs by neutral red dye based assay; type: functional
[7] = system: LLC-PK1; assay: Cytotoxicity against pig LLC-PK1 cells assessed as cell growth inhibition incubated for 48 hrs by neutral red dye based assay; set-up: species or system Sus scrofa; conditions: llc-pk1
[8] = system: Staphylococcus aureus; assay: Antimicrobial activity against Staphylococcus aureus by modified CLSI based method; type: functional, organism-based
[9] = system: Leishmania donovani; assay: Antileishmanial activity against Leishmania donovani promastigotes incubated for 48 hrs by alamar blue assay; type: functional, organism-based; conditions: Leishmania donovani, 48 h
[10] = system: Staphylococcus aureus; assay: Antimicrobial activity against methicillin-resistant Staphylococcus aureus by modified CLSI based method; type: functional, organism-based
[11] = system: BT-549; assay: Anticancer activity against human BT549 cells assessed as cell growth inhibition up to 10 ug/ml incubated for 48 hrs by neutral red dye based assay; type: functional
[12] = system: Plasmodium falciparum; assay: Antiplasmodial activity against chloroquine-sensitive Plasmodium falciparum D6 infected in red blood cells incubated for 72 hrs by parasite LDH release based colorimetric assay; type: functional, organism-based; conditions: D6, 72 h
[13] = system: Pichia kudriavzevii; assay: Antifungal activity against Candida krusei by modified CLSI based method; type: functional, organism-based; conditions: Pichia kudriavzevii; read-out: IC50

SMILES: C=C1C[C@H]2C3=C(OC(C)(C)[C@@H]2CC1OO)C(=O)C(CCCCC)=CC3=O (stereo in doubt; 25)
- IC50 [1]: Not Active
- IC50 [2]: Not Active
- IC50 [3]: 8.65 µg/mL (≈ 24 µM)
- IC50 ([4]; read-out: IC50): 1.4 µg/mL (≈ 3.88 µM)
- MIC ([4]; read-out: MIC): 2.5 µg/mL (≈ 6.94 µM)
- IC50 [5]: 0.9 µg/mL (≈ 2.5 µM)
- IC50 [6]: Not Active
- IC50 [7]: 9.9 µg/mL (≈ 27.5 µM)
- IC50 [8]: 0.91 µg/mL (≈ 2.52 µM)
- MIC ([8]; Staphylococcus aureus, read-out: MIC): 2.5 µg/mL (≈ 6.94 µM)
- IC50 ([9]; read-out: IC50): 2.1 µg/mL (≈ 5.83 µM)
- IC90 ([9]; read-out: IC90): 11 µg/mL (≈ 30.5 µM)
- IC50 [10]: 5.78 µg/mL (≈ 16 µM)
- MIC ([10]; Staphylococcus aureus): 10 µg/mL (≈ 27.7 µM)
- IC50 [11]: Not Active
- IC50 [12]: 1 µg/mL (≈ 2.77 µM)
- IC50 [13]: 17 µg/mL (≈ 47.2 µM)
